pIC50: −log10 of the molar value.
Assays:
IKZF1 = target: T1, IKZF1 (Homo sapiens, UniProt Q13422+Q96SW2); assay: Western blot, degradation of substrate protein in hPBMCs; format: cell-based
T1 construct: effects of the compounds of the present disclosure on the expression of target proteins in cells; endogenous in cells; host or cells: human PBMCs (Milecell Biotechnologies)

IKZF2 = target: T2, IKZF2 (Homo sapiens, UniProt Q96SW2+Q9UKS7); assay: as above; format: cell-based
T2 construct: effects of the compounds of the present disclosure on the expression of target proteins in cells; endogenous in cells; host or cells: human PBMCs (Milecell Biotechnologies)
T2 sequence (Q9UKS7 whole entry): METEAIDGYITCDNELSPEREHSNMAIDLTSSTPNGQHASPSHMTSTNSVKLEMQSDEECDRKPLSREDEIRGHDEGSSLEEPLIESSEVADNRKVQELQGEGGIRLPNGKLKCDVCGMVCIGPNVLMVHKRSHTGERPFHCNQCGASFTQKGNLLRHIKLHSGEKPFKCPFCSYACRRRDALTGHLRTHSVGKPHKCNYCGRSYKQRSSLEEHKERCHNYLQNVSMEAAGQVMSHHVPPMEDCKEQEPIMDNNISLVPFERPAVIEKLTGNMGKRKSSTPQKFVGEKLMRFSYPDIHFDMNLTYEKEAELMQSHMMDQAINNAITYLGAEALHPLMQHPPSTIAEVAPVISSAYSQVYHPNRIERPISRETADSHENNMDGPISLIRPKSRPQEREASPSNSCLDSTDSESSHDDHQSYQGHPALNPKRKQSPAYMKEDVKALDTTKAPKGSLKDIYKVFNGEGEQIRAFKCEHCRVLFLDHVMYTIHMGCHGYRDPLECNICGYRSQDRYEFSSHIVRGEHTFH
T2 sequence (Q96SW2 whole entry): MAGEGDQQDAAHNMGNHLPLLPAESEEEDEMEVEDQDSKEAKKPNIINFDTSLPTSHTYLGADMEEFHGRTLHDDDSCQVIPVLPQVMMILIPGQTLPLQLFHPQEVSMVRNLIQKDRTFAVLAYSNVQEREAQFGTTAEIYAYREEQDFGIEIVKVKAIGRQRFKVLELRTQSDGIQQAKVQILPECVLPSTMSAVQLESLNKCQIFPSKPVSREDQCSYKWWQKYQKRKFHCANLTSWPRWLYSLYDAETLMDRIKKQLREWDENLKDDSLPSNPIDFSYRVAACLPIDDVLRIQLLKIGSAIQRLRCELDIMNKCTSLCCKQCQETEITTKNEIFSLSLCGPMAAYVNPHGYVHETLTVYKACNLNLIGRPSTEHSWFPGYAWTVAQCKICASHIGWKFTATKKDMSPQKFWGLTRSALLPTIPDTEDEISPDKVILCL
T2 sequence (Q16531 whole entry partner): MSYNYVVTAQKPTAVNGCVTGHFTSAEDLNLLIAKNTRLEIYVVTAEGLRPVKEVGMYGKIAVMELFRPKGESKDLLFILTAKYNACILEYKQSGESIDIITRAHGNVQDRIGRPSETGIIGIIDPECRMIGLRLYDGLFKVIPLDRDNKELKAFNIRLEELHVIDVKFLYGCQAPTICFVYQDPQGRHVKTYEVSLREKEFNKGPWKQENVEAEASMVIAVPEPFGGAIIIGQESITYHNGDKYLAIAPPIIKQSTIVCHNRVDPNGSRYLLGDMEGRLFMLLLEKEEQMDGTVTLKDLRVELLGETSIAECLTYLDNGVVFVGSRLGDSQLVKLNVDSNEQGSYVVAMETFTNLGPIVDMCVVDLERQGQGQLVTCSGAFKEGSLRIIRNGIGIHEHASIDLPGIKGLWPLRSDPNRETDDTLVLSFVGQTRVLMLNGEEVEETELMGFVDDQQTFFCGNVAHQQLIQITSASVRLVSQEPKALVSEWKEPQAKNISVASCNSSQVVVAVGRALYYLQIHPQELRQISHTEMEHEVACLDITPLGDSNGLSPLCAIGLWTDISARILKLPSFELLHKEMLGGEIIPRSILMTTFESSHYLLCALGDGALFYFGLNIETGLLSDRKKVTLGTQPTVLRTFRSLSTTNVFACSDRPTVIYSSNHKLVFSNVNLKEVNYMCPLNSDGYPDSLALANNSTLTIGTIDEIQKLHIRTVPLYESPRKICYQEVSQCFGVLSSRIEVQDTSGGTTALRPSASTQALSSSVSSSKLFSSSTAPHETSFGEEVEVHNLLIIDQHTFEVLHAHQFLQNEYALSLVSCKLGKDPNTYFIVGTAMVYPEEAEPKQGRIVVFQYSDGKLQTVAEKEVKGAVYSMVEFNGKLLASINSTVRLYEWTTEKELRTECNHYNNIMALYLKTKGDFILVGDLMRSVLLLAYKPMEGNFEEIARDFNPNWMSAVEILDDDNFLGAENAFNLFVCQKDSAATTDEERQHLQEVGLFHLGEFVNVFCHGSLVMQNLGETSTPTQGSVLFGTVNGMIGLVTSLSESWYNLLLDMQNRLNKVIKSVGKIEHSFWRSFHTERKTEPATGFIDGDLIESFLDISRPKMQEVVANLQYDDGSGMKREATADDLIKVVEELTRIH

WEE1 = target: T3, WEE1 (Homo sapiens, UniProt P30291+Q96SW2); assay: as above; format: cell-based
T3 construct: effects of the compounds of the present disclosure on the expression of target proteins in cells; endogenous in cells; host or cells: human PBMCs (Milecell Biotechnologies)
T3 sequence (P30291 whole entry): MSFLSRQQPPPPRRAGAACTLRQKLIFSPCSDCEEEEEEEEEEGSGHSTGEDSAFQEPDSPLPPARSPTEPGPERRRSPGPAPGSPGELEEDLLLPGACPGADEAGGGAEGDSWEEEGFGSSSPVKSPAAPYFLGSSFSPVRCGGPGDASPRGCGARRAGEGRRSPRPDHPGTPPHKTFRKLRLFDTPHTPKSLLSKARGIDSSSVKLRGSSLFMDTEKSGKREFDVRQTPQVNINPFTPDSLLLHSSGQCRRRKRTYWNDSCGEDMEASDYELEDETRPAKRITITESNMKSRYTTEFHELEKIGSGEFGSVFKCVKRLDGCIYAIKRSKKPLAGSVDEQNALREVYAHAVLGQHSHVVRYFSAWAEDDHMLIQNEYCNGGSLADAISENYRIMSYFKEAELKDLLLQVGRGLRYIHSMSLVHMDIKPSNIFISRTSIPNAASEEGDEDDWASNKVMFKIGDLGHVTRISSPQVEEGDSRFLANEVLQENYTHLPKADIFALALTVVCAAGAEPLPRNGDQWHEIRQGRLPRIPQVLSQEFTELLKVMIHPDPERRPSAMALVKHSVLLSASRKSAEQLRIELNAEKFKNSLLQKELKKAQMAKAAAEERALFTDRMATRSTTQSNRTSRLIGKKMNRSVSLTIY
T3 sequence (Q96SW2 whole entry): as the sequence (Q96SW2 whole entry) above
T3 sequence (Q16531 whole entry partner): as the sequence (Q16531 whole entry partner) above

IKZF3 = target: T4, IKZF3 (Homo sapiens, UniProt Q96SW2+Q9UKT9); assay: as above; format: cell-based
T4 construct: effects of the compounds of the present disclosure on the expression of target proteins in cells; endogenous in cells; host or cells: human PBMCs (Milecell Biotechnologies)
T4 sequence (Q9UKT9 whole entry): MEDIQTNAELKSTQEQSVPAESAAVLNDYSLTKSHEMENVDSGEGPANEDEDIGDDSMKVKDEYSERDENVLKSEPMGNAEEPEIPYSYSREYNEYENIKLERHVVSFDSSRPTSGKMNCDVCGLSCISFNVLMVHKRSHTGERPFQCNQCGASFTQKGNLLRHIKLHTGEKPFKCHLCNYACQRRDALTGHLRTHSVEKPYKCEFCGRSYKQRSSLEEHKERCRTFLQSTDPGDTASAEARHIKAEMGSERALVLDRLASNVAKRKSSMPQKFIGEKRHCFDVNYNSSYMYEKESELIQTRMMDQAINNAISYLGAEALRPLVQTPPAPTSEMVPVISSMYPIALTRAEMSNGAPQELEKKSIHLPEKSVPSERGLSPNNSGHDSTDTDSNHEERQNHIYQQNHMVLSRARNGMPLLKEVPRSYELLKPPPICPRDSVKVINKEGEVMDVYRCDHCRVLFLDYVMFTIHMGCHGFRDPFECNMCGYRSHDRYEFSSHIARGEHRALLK
T4 sequence (Q96SW2 whole entry): as the sequence (Q96SW2 whole entry) above
T4 sequence (Q16531 whole entry partner): as the sequence (Q16531 whole entry partner) above

CK1α = target: T5, CK1α (Homo sapiens, UniProt P48729+Q96SW2); assay: as above; format: cell-based
T5 construct: effects of the compounds of the present disclosure on the expression of target proteins in cells; endogenous in cells; host or cells: human PBMCs (Milecell Biotechnologies)
T5 sequence (P48729 whole entry): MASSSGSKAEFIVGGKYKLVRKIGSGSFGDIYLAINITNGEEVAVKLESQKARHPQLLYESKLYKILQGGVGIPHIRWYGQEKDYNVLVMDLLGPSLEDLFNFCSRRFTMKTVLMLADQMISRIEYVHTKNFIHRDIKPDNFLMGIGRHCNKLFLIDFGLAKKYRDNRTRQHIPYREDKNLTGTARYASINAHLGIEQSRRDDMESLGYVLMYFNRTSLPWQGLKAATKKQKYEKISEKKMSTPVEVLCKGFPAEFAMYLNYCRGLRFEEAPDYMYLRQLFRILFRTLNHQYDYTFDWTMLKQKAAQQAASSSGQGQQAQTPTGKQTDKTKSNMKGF
T5 sequence (Q96SW2 whole entry): as the sequence (Q96SW2 whole entry) above
T5 sequence (Q16531 whole entry partner): as the sequence (Q16531 whole entry partner) above

[1] = target: T6, human Cereblon WT GST-tagged protein (Homo sapiens, UniProt Q96SW2); assay: CRBN-binding affinity, HTRF (CEREBLON BINDING kit); settings: for inhibition at 0.5 µM: read-out: Inhibition Rate at 0.5 µM (%); for inhibition at 2 µM: read-out: Inhibition Rate at 2 µM (%)
T6 construct: purchased CISBIO 64BDCRBNPEH
T6 sequence (Q96SW2 whole entry): as the sequence (Q96SW2 whole entry) above

GSPT1 = assay: Western blot, degradation of substrate protein in hPBMCs; format: cell-based, Human
[2] = 24 hours treatment, compounds at 50 nM and 500 nM (concentration behind the class not stated)
[3] = Western blot, 24 hours of compound treatment, compounds tested at 50 nM and 500 nM (concentration for the table not stated)

T1 sequence (Q13422 whole entry): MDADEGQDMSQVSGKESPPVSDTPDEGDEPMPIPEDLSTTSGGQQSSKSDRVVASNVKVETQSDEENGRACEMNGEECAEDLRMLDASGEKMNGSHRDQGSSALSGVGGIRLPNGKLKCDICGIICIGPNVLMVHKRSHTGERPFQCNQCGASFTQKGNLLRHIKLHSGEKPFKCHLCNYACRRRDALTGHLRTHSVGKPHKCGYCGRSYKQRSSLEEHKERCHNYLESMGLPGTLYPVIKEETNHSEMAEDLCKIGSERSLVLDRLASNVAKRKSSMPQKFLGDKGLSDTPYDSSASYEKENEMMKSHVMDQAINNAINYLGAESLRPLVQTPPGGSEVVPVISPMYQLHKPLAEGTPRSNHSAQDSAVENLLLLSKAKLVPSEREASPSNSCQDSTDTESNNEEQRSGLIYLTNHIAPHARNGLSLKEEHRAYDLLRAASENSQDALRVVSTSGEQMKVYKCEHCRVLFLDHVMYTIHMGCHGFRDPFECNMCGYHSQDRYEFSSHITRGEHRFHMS
T1 sequence (Q96SW2 whole entry): as the sequence (Q96SW2 whole entry) above
T1 sequence (Q16531 whole entry partner): as the sequence (Q16531 whole entry partner) above

Row | Compound | IKZF 1 substrate protein remaining % (IKZF1; [2]) | IKZF2 substrate protein remaining % (IKZF2; [2]) | Wee1 substrate protein remaining % (WEE1; [2]) | IKZF3 substrate protein remaining % (IKZF3; [2]) | CK1α substrate protein remaining % (CK1α; [2]) | inhibition at 0.5 µM [1] | inhibition at 2 µM [1] | GSPT1 substrate protein remaining % (GSPT1; [2]) | IKZF 1 substrate protein remaining % (IKZF1; [3]) | IKZF2 substrate protein remaining % (IKZF2; [3]) | Wee1 substrate protein remaining % (WEE1; [3]) | IKZF3 substrate protein remaining % (IKZF3; [3]) | CK1α substrate protein remaining % (CK1α; [3]) | GSPT1 substrate protein remaining % (GSPT1; [3]) | pIC50 ([1]; CRBN binding, HTRF, 3 hours at room temperature, read-out: HTRF IC50)
1 | O=C1CCC(N2Cc3cc(CN4CCN(c5ncnc6sc7c(c56)CCCC7)CC4)ccc3C2=S)C(=O)N1 (centres unmarked) [GT-09300, 3-(5-((4-(5,6,7,8-tetrahydrobenzo[4,5]thieno[2,3-d]pyrimidin-4-yl)piperazin-1-yl)methyl)-1-thioxoisoindolin-2-yl)piperidine-2,6-dione] | A (0% ≤ substrate protein remaining % ≤ 80%) | A (0% ≤ substrate protein remaining % ≤ 80%) | B (80%< substrate protein remaining %≤ 100%) | A (0% ≤ substrate protein remaining % ≤ 80%) | B (80%< substrate protein remaining %≤ 100%) | 53 to 60% | 80 to 100% | B (80%< substrate protein remaining %≤ 100%) |  |  |  |  |  |  | 
2 | O=C1CCC(N2Cc3cc(CN4CCN(c5ncccc5C(F)(F)F)CC4)ccc3C2=S)C(=O)N1 (centres unmarked) [GT-09223, 3-(1-thioxo-5-((4-(3-(trifluoromethyl)pyridin-2-yl)piperazin-1-yl)methyl)isoindolin-2-yl)piperidine-2,6-dione] |  |  |  |  |  | 60 to 80% | 80 to 100% |  | B (80%< substrate protein remaining %≤ 100%) | B (80%< substrate protein remaining %≤ 100%) | A (0% ≤ substrate protein remaining % ≤ 80%) | B (80%< substrate protein remaining %≤ 100%) | A (0% ≤ substrate protein remaining % ≤ 80%) | B (80%< substrate protein remaining %≤ 100%) | 
3 | O=C1CCC(N2Cc3cc(CN4CCC(n5cnc6cc(F)ccc65)CC4)ccc3C2=S)C(=O)N1 (centres unmarked) [GT-09262, 3-(5-((4-(5-fluoro-1H-benzo[d]imidazol-1-yl)piperidin-1-yl)methyl)-1-thioxoisoindolin-2-yl)piperidine-2,6-dione] | B (80%< substrate protein remaining %≤ 100%) | B (80%< substrate protein remaining %≤ 100%) | B (80%< substrate protein remaining %≤ 100%) | B (80%< substrate protein remaining %≤ 100%) | B (80%< substrate protein remaining %≤ 100%) | 53 to 60% | 80 to 100% | A (0% ≤ substrate protein remaining % ≤ 80%) |  |  |  |  |  |  | 
4 | Cc1nc(C2=CCN(Cc3ccc4c(c3)CN(C3CCC(=O)NC3=O)C4=S)CC2)c2c(-c3ccccc3)csc2n1 (centres unmarked) [GT-09321, 3-(5-((4-(2-methyl-5-phenylthieno[2,3-d]pyrimidin-4-yl)-3,6-dihydropyridin-1(2H)-yl)methyl)-1-thioxoisoindolin-2-yl)piperidine-2,6-dione] | B (80%< substrate protein remaining %≤ 100%) | B (80%< substrate protein remaining %≤ 100%) | A (0% ≤ substrate protein remaining % ≤ 80%) | B (80%< substrate protein remaining %≤ 100%) | B (80%< substrate protein remaining %≤ 100%) | 53 to 60% | 80 to 100% | A (0% ≤ substrate protein remaining % ≤ 80%) |  |  |  |  |  |  | 
5 | CC1(C)CN(Cc2cccc3c2CN(C2CCC(=O)NC2=O)C3=S)CCN1C(c1ccccc1)c1ccccc1 (centres unmarked) [GT-08231, 3-(4-((4-benzhydryl-3,3-dimethylpiperazin-1-yl)methyl)-1-thioxoisoindolin-2-yl)piperidine-2,6-dione] |  |  |  |  |  | 53 to 60% | 60 to 80% |  | B (80%< substrate protein remaining %≤ 100%) | A (0% ≤ substrate protein remaining % ≤ 80%) | A (0% ≤ substrate protein remaining % ≤ 80%) | B (80%< substrate protein remaining %≤ 100%) | B (80%< substrate protein remaining %≤ 100%) | A (0% ≤ substrate protein remaining % ≤ 80%) | 
6 | O=C1CCC(N2Cc3cc(CN4CCN(c5nc(N6CCOCC6)nc6ccsc56)CC4)ccc3C2=S)C(=O)N1 (centres unmarked) [GT-09333, 3-(5-((4-(2-morpholinothieno[3,2-d]pyrimidin-4-yl)piperazin-1-yl)methyl)-1-thioxoisoindolin-2-yl)piperidine-2,6-dione] | A (0% ≤ substrate protein remaining % ≤ 80%) | B (80%< substrate protein remaining %≤ 100%) | B (80%< substrate protein remaining %≤ 100%) | A (0% ≤ substrate protein remaining % ≤ 80%) | B (80%< substrate protein remaining %≤ 100%) | 60 to 80% | 80 to 100% | A (0% ≤ substrate protein remaining % ≤ 80%) |  |  |  |  |  |  | 
7 | Cn1cc(C2CCN(Cc3cccc4c3CN(C3CCC(=O)NC3=O)C4=S)CC2)c2ccc(F)cc21 (centres unmarked) [GT-08844, 3-(4-((4-(6-fluoro-1-methyl-1H-indol-3-yl)piperidin-1-yl)methyl)-1-thioxoisoindolin-2-yl)piperidine-2,6-dione] |  |  |  |  |  | 40 to 53% | 60 to 80% |  | B (80%< substrate protein remaining %≤ 100%) | B (80%< substrate protein remaining %≤ 100%) | A (0% ≤ substrate protein remaining % ≤ 80%) | B (80%< substrate protein remaining %≤ 100%) | B (80%< substrate protein remaining %≤ 100%) | B (80%< substrate protein remaining %≤ 100%) | 
8 | O=C1CCC(N2Cc3c(CN4CCC(c5cccs5)CC4)cccc3C2=S)C(=O)N1 (centres unmarked) [GT-08320, 3-(4-((4-(thiophen-2-yl)piperidin-1-yl)methyl)-1-thioxoisoindolin-2-yl)piperidine-2,6-dione] | B (80%< substrate protein remaining %≤ 100%) | B (80%< substrate protein remaining %≤ 100%) | A (0% ≤ substrate protein remaining % ≤ 80%) | A (0% ≤ substrate protein remaining % ≤ 80%) | B (80%< substrate protein remaining %≤ 100%) | 40 to 53% | 60 to 80% | B (80%< substrate protein remaining %≤ 100%) |  |  |  |  |  |  | 
9 | O=C1CCC(N2Cc3c(CN4CCN(c5ccc(Br)cc5)CC4)cccc3C2=S)C(=O)N1 (centres unmarked) [GT-08496, 3-(4-((4-(4-bromophenyl)piperazin-1-yl)methyl)-1-thioxoisoindolin-2-yl)piperidine-2,6-dione] |  |  |  |  |  | 40 to 53% | 80 to 100% |  | A (0% ≤ substrate protein remaining % ≤ 80%) | A (0% ≤ substrate protein remaining % ≤ 80%) | A (0% ≤ substrate protein remaining % ≤ 80%) | B (80%< substrate protein remaining %≤ 100%) | B (80%< substrate protein remaining %≤ 100%) | A (0% ≤ substrate protein remaining % ≤ 80%) | 
10 | O=C1CCC(N2Cc3c(CN4CCC(c5ccnc(Cl)c5Cl)CC4)cccc3C2=S)C(=O)N1 (centres unmarked) [GT-08458, 3-(4-((4-(2,3-dichloropyridin-4-yl)piperidin-1-yl)methyl)-1-thioxoisoindolin-2-yl)piperidine-2,6-dione] |  |  |  |  |  | 53 to 60% | 80 to 100% |  | B (80%< substrate protein remaining %≤ 100%) | B (80%< substrate protein remaining %≤ 100%) | A (0% ≤ substrate protein remaining % ≤ 80%) | B (80%< substrate protein remaining %≤ 100%) | B (80%< substrate protein remaining %≤ 100%) | B (80%< substrate protein remaining %≤ 100%) | 
11 | Cc1cscc1N1CCN(Cc2ccc3c(c2)CN(C2CCC(=O)NC2=O)C3=S)CC1 (centres unmarked) [GT-05113, 3-(5-((4-(4-methylthiophen-3-yl)piperazin-1-yl)methyl)-1-thioxoisoindolin-2-yl)piperidine-2,6-dione] |  |  |  |  |  |  |  |  | A (0% ≤ substrate protein remaining % ≤ 80%) | B (80%< substrate protein remaining %≤ 100%) | B (80%< substrate protein remaining %≤ 100%) | A (0% ≤ substrate protein remaining % ≤ 80%) | B (80%< substrate protein remaining %≤ 100%) | A (0% ≤ substrate protein remaining % ≤ 80%) | > 7.00
12 | O=C1CCC(N2Cc3c(CN4CCC(c5ccccc5C(F)(F)F)CC4)cccc3C2=S)C(=O)N1 (centres unmarked) [GT-08598, 3-(1-thioxo-4-((4-(2-(trifluoromethyl)phenyl)piperidin-1-yl)methyl)isoindolin-2-yl)piperidine-2,6-dione] |  |  |  |  |  | 40 to 53% | 60 to 80% |  | B (80%< substrate protein remaining %≤ 100%) | B (80%< substrate protein remaining %≤ 100%) | A (0% ≤ substrate protein remaining % ≤ 80%) | B (80%< substrate protein remaining %≤ 100%) | B (80%< substrate protein remaining %≤ 100%) | A (0% ≤ substrate protein remaining % ≤ 80%) | 

Reference: patent EP4745135A1 (Gluetacs Therapeutics (Shanghai) Co., Ltd., priority 2023, dated 2025)
